Data taken from patent US10988792B2, “Methods for antimicrobial resistance determination” (bioMerieux, Inc., priority 2009, dated 2021).

How the values were obtained:
[1] = tested on: S. aureus strains ATCC 25923 (MSSA) and D14906 (MRSA); test: Time course of BOCILLIN-FL binding
Method: Samples of S. aureus strains ATCC 25923 (MSSA) and D14906 (MRSA) were grown in BacT/ALERT SA culture media at 37° C. until exponential growth was reached (8-10 hours). The OD 660 nm of each culture was measured and both suspensions were adjusted to 0.50 with pre-warmed SA media. BOCILLIN™-FL was diluted in pre-warmed SA media, filtered through a 0.2 μm filter and kept at 37° C. Samples of the bacteria (9.0 ml) were mixed with 1.0 ml of 100 μM BOCILLIN™-FL, mixed well, and dispensed as ten 1.0 ml aliquots into microfuge tubes containing 0.2 ml of the same oil blend used in Example 1. All tubes except the T0 tube were placed at 37° C. Tubes were removed and processed at 6, 11, 16, 22, 45, 60, 75, and 91 minutes. Each tube was centrifuged for 1 minute, the supernatant was aspirated, and the pellet was resuspended in 0.1 ml PBS and then added to 3.0 ml PBS in an acrylic cuvette. The sample was scanned in the FluoroLog-3 system at an excitation wavelength of 490 nm and the fluorescence emission at 510 nm was recorded.

[2] = tested on: S. aureus ATCC 25923 (Methicillin-Sensitive; MSSA); test: BOCILLIN-FL binding after NaOH treatment (harsh pretreatment), oil blend separation; conditions: for MSSA/MRSA Ratio: MSSA (25923)/MRSA (D14906); for BOCILLIN-FL binding, fluorescence emission at 510 nm (excitation 490 nm): MSSA (25923)
Method: (§1) Two experimental approaches were used to test BOCILLIN™-FL (Molecular Probes, Invitrogen) binding to S. aureus: (1) treating cells with sodium hydroxide (NaOH), neutralizing, adding BOCILLIN™-FL, then separating the cells (harsh pretreatment); and (2) culturing cells with BOCILLIN™-FL, then separating the cells (metabolic labeling).
(§2) For the first method, S. aureus strains ATCC 25923 (Methicillin-Sensitive; MSSA) and D14906 (Methicillin-Resistant; MRSA) were cultured until exponential growth (6 hours) in tryptic soy broth (TSB). Samples of each suspension (0.9 ml in TSB) and 0.1 N NaOH (0.1 ml; ±20 μl 7.5% TRITON® X100-R) were vortexed for 5 seconds, then either neutralized immediately or after 1 minute by adding 1 M KH2PO4 (0.125 ml) and vortexing for 5 seconds. BOCILLIN™-FL (15 μl of 1.0 mg/ml) was added to the suspension, which was then vortexed, and incubated for 5 minutes at room temperature. Unbound BOCILLIN™-FL was removed by centrifuging the mixture over 0.2 ml of an oil blend optimized to separate microorganisms from culture media (1.0 part of Type DF microscope immersion oil+0.875 parts of Drakeol 5 mineral oil) at 10,000 rpm for 1 minute. The supernatant and oil layer were removed and the pellet resuspended in 3.0 ml PBS, pH 7.4. The sample was scanned in the FluoroLog-3 system at an excitation wavelength of 490 nm and the fluorescence emission at 510 nm was recorded.

[3] = tested on: S. aureus D14906 (Methicillin-Resistant; MRSA); test: as above
Method: as §1, §2

[4] = tested on: Twenty different strains of S. aureus (10 MRSA and 10 MSSA strains); test: BOCILLIN-FL binding to a panel of MRSA and MSSA strains; conditions: signal Ex490_Em510 normalized to tryptophan Ex285_Em350; 50 μM BOCILLIN-FL (0.1 ml) + 0.9 ml strain, 30 minutes at 37° C. (FIG. 4)
Method: Twenty different strains of S. aureus (10 MRSA and 10 MSSA strains, confirmed with cefoxitin discs and Vitek-2) were propagated. A loopful of growth (1 μL) was removed from 24-hour plates and suspended in BacT/ALERT SA culture media (8 ml in a glass screw-capped tube). The tubes were vortexed well and incubated at 36° C. for 6 hours. The OD of each suspension was measured at 660 nm and adjusted to approximately the same density (0.50-0.75 OD; sample #12166 was only 0.28). 50 μM BOCILLIN™-FL (0.1 ml) was placed into each of 20 labeled microfuge tubes. A sample of each strain (0.9 ml) was added to each tube, mixed, and incubated at 37° C. for 30 minutes. The reaction mixture was then removed and added to a second set of tubes containing 0.2 ml of an oil blend (1.000 part type DF immersion oil plus 0.875 part Drakeol 5 mineral oil). The tubes were centrifuged for 2 minutes at 10,000 rpm in an A-8-11 rotor (Eppendorf 5417R). The supernatant and most of the oil was aspirated with a vacuum device. The remaining oil was removed using a Gilson P200 tip and the pellet was resuspended in 100 μl PBS. The cells were transferred to an acrylic cuvette containing 3 ml PBS and read in the FluoroLog 3 system using the FluoroScan “Bocillin” points listed in Table 3. Additionally, Vitek AST cards were run on each of the 20 isolates (from the same 24 hour plates).

[5] = tested on: S. aureus strains ATCC 25923 (MSSA) and D14906 (MRSA); test: Titration of BOCILLIN-FL binding
Method: Samples of S. aureus strains ATCC 25923 (MSSA) and D14906 (MRSA) were grown in BacT/ALERT SA culture media at 37° C. for about 6 hours until an OD 660 nm of about 0.35 was reached. Dilutions of BOCILLIN™-FL (0.1 ml) were prepared in SA medium and placed into culture tubes. Samples of the bacterial suspension (0.9 ml) were added to the tubes and mixed. The tubes were capped and placed in a 37° C. incubator for 60 minutes. Samples (1.0 ml) were transferred to microfuge tubes containing 0.2 ml of the same oil blend used in Example 1, centrifuged for 1 minute, aspirated, and the pellet was resuspended in 0.1 ml PBS and then added to 3.0 ml PBS, pH 7.4 in an acrylic cuvette. The sample was scanned in the FluoroLog-3 system at an excitation wavelength of 490 nm and the fluorescence emission at 510 nm was recorded.

In the case of `Cc1cc(C)n2c1C=C1C=CC(CCC(=O)Nc3ccc(OCC(=O)N[C@@H]4C(=O)N5[C@@H]4SC(C)(C)[C@@H]5C(=O)[O-])cc3)=[N+]1[B-]2(F)F.[Na+]` [BOCILLIN™-FL], the “BOCILLIN-FL bound by the MSSA strain, more than the MRSA strain, per cell basis” value ([1]; 1.0 ml of 100 μM BOCILLIN-FL mixed with 9.0 ml bacteria, irrespective of the culture time) is reported as 2-3 times, the “Time at which maximal binding was measured” value ([1]; room temperature (the T0 tube), oil method) is reported as 5 min and the “MSSA/MRSA Ratio” value ([2]; a = 5″ at pH 12) is reported as 2.3. For the same compound, the “MSSA/MRSA Ratio” value ([2]; b = 60″ at pH 12) was 1.1, the “MSSA/MRSA Ratio” value ([2]; c = 5″ at pH 12 + TX100) was 1.5 and the “MSSA/MRSA Ratio” value ([2]; d = 60″ at pH 12 + TX100) was 2.0. For the same compound, the “BOCILLIN-FL binding, fluorescence emission at 510 nm (excitation 490 nm)” value (from here on “BOCILLIN-FL binding”) ([2]; a = 5″ at pH 12) was 3.7 × 10^6, the “BOCILLIN-FL binding” value ([2]; b = 60″ at pH 12) was 1.0 × 10^6 and the “BOCILLIN-FL binding” value ([2]; c = 5″ at pH 12 + TX100) was 0.9 × 10^6. The “BOCILLIN-FL binding” value ([2]; d = 60″ at pH 12 + TX100) was 0.8 × 10^6, the “BOCILLIN-FL binding” value ([3]; a = 5″ at pH 12) was 1.6 × 10^6 and the “BOCILLIN-FL binding” value ([3]; b = 60″ at pH 12) was 0.9 × 10^6. For the same compound, the “BOCILLIN-FL binding” value ([3]; c = 5″ at pH 12 + TX100) was 0.6 × 10^6, the “BOCILLIN-FL binding” value ([3]; d = 60″ at pH 12 + TX100) was 0.4 × 10^6 and the “BOCILLIN-FL bound by the five benzyl-penicillin sensitive strains versus the fifteen benzyl-penicillin resistant strains” value [4] was “over twice the amount”. For the same compound, the “Shape of the MSSA binding curve” value ([5]; MSSA strain, second order polynomial curve fit) was “biphasic”, the “Difference in binding between the MSSA and MRSA strains” value ([5]; at about 0.5 μM BOCILLIN-FL) was 4 fold and the “Difference in binding between the MSSA and MRSA strains” value ([5]; at about 5 μM BOCILLIN-FL) was 3 fold. For the same compound, the “BOCILLIN-FL bound by the MSSA strain, more than the MRSA strain, per cell basis” value ([5]; depending on the BOCILLIN-FL concentration, 60 minutes at 37° C. (FIG. 3)) was 2-4 fold.
